{"source": "patent US9944603B2", "about": "“Compounds and methods for the treatment of cystic fibrosis” (Flatley Discovery Lab, LLC, priority 2013, dated 2018)", "biological_target": "T1, human F508del CFTR (Homo sapiens, UniProt P13569, DEL508-508)", "T1 construct": "expressed in transfected cells", "T1 sequence (P13569 with tags, fused parts or gaps DEL508-508)": "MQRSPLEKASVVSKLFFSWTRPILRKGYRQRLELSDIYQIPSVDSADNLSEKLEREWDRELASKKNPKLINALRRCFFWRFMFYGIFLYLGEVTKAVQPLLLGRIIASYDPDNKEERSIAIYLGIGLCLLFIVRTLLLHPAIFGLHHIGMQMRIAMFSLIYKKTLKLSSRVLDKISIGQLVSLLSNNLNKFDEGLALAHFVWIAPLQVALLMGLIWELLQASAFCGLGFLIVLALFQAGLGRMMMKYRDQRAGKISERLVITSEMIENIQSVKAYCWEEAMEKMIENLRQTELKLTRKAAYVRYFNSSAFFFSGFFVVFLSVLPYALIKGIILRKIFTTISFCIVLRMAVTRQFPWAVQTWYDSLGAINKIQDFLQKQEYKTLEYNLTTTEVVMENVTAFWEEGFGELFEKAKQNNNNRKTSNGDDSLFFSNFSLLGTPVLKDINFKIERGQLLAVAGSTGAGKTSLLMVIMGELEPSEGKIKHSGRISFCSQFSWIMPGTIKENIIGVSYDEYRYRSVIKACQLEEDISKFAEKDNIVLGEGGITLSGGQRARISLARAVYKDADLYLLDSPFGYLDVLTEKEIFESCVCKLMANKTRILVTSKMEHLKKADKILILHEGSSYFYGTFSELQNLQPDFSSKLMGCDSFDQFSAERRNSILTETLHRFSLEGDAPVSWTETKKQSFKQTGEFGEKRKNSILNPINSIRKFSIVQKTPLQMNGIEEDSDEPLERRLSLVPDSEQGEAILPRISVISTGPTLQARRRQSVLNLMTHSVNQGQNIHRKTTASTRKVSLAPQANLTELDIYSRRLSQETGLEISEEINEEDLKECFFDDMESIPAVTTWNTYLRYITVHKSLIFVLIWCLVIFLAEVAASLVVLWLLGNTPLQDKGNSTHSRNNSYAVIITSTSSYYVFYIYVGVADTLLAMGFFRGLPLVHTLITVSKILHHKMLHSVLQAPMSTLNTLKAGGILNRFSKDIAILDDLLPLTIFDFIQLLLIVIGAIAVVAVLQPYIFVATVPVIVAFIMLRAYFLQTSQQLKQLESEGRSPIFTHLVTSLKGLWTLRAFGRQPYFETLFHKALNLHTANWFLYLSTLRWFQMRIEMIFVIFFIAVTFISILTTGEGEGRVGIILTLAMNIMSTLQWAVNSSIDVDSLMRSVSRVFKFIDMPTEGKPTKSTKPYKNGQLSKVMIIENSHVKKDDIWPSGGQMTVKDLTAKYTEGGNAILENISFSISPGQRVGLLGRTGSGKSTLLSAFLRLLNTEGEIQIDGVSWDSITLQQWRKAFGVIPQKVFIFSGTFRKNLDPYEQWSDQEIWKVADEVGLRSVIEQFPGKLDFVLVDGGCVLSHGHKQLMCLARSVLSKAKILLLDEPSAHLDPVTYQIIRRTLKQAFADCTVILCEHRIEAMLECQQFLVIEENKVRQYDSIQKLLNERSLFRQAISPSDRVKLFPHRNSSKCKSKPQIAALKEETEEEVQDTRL", "assay": "CFTR-YFP Assay, CFTR Corrector Protocol (YFP flux assay)", "type": "cell-based", "settings": "for Emax: normalized to the positive control, read-out: EMAX (% Efficacy, EMAX normalized to the positive control)", "note": "pEC50: −log10 of the molar value."}
{"smiles": "O=S(=O)(c1ccc2c(c1)OC(F)(F)O2)N1CCC(n2c(-c3cccnc3Cl)nc3cccnc32)CC1", "note": "[Example 102]", "values": [{"measurement": "pEC50", "value": "> 5.00"}, {"measurement": "Emax", "value": "30 to 80", "unit": "%"}]}
{"smiles": "COc1ccc(S(=O)(=O)N2CCC(n3c(-c4ccccc4)cc4ccccc43)CC2)cc1Cl", "note": "[Example 103]", "values": [{"measurement": "pEC50", "value": "> 5.00"}, {"measurement": "Emax", "value": "10 to 30", "unit": "%"}]}
{"smiles": "O=S(=O)(c1ccc2c(c1)OC(F)(F)O2)N1CCC(n2c(-c3ccccc3)cc3ccccc32)CC1", "note": "[Example 104]", "values": [{"measurement": "pEC50", "value": "> 5.00"}, {"measurement": "Emax", "value": "30 to 80", "unit": "%"}]}
{"smiles": "O=S(=O)(c1ccc2c(c1)OCO2)N1CCC(n2c(-c3ccc(F)nc3F)nc3cccnc32)CC1", "note": "[Example 105]", "values": [{"measurement": "pEC50", "value": "> 5.00"}, {"measurement": "Emax", "value": "30 to 80", "unit": "%"}]}
{"smiles": "O=S(=O)(c1ccc2c(c1)OC(F)(F)O2)N1CCC(n2c(-c3ccc(F)nc3F)nc3cccnc32)CC1", "note": "[Example 106]", "values": [{"measurement": "pEC50", "value": "> 5.00"}, {"measurement": "Emax", "value": "10 to 30", "unit": "%"}]}
{"smiles": "O=S(=O)(c1ccc2c(c1)OCO2)N1CCC(n2c(-c3ccncc3F)nc3cccnc32)CC1", "note": "[Example 107]", "values": [{"measurement": "pEC50", "value": "> 5.00"}, {"measurement": "Emax", "value": "30 to 80", "unit": "%"}]}
{"smiles": "O=S(=O)(c1ccc2c(c1)OCO2)N1CCC(n2c(-c3ccc(F)cc3F)nc3cccnc32)CC1", "note": "[Example 108]", "values": [{"measurement": "pEC50", "value": "> 5.00"}, {"measurement": "Emax", "value": "30 to 80", "unit": "%"}]}
{"smiles": "O=S(=O)(c1ccc2c(c1)OC(F)(F)O2)N1CCC(n2c(-c3ccc(F)cc3F)nc3cccnc32)CC1", "note": "[Example 109]", "values": [{"measurement": "pEC50", "value": "> 5.00"}, {"measurement": "Emax", "value": "30 to 80", "unit": "%"}]}
{"smiles": "CCc1ccc(S(=O)(=O)N2CCC(n3c(-c4ccncc4F)nc4cccnc43)CC2)cc1", "note": "[Example 110]", "values": [{"measurement": "pEC50", "value": "> 5.00"}, {"measurement": "Emax", "value": "30 to 80", "unit": "%"}]}
{"smiles": "CCc1ccc(S(=O)(=O)N2CCC(n3c(-c4ccc(F)nc4F)nc4cccnc43)CC2)cc1", "note": "[Example 111]", "values": [{"measurement": "pEC50", "value": "> 5.00"}, {"measurement": "Emax", "value": "30 to 80", "unit": "%"}]}
{"smiles": "Cc1ccc2nc(-c3ccncc3F)n(C3CCN(S(=O)(=O)c4ccc5c(c4)OC(F)(F)O5)CC3)c2n1", "note": "[Example 112]", "values": [{"measurement": "pEC50", "value": "> 5.00"}, {"measurement": "Emax", "value": "> 80", "unit": "%"}]}
{"smiles": "CCc1ccc(S(=O)(=O)N2CCC(n3c(-c4ccncc4F)nc4ccc(C)nc43)CC2)cc1", "note": "[Example 113]", "values": [{"measurement": "pEC50", "value": "> 5.00"}, {"measurement": "Emax", "value": "30 to 80", "unit": "%"}]}
{"smiles": "Cc1ccc2nc(-c3ccncn3)n(C3CCN(S(=O)(=O)c4ccc5c(c4)OC(F)(F)O5)CC3)c2n1", "note": "[Example 114]", "values": [{"measurement": "pEC50", "value": "> 5.00"}, {"measurement": "Emax", "value": "30 to 80", "unit": "%"}]}
{"smiles": "CCc1ccc(S(=O)(=O)N2CCC(n3c(-c4ccncn4)nc4ccc(C)nc43)CC2)cc1", "note": "[Example 115]", "values": [{"measurement": "pEC50", "value": "> 5.00"}, {"measurement": "Emax", "value": "30 to 80", "unit": "%"}]}
{"smiles": "O=S(=O)(c1ccc2c(c1)OC(F)(F)O2)N1CCC(n2c(-c3ccncc3F)nc3ncccc32)CC1", "note": "[Example 116]", "values": [{"measurement": "pEC50", "value": "> 5.00"}, {"measurement": "Emax", "value": "> 80", "unit": "%"}]}
{"smiles": "O=S(=O)(c1ccc2c(c1)CCO2)N1CCC(n2c(-c3ccncc3F)nc3cccnc32)CC1", "note": "[Example 117]", "values": [{"measurement": "pEC50", "value": "> 5.00"}, {"measurement": "Emax", "value": "30 to 80", "unit": "%"}]}
{"smiles": "COc1ccc2nc(-c3ccncc3Cl)n(C3CCN(S(=O)(=O)c4ccc5c(c4)OC(F)(F)O5)CC3)c2n1", "note": "[Example 118]", "values": [{"measurement": "pEC50", "value": "> 5.00"}, {"measurement": "Emax", "value": "30 to 80", "unit": "%"}]}
{"smiles": "O=S(=O)(c1ccc2c(c1)OC(F)(F)O2)N1CCC(n2c(-c3cccnc3F)nc3cccnc32)CC1", "note": "[Example 119]", "values": [{"measurement": "pEC50", "value": "> 5.00"}, {"measurement": "Emax", "value": "> 80", "unit": "%"}]}
{"smiles": "CCc1ccc(S(=O)(=O)N2CCC(n3c(-c4cccnc4F)nc4cccnc43)CC2)cc1", "note": "[Example 120]", "values": [{"measurement": "pEC50", "value": "> 5.00"}, {"measurement": "Emax", "value": "> 80", "unit": "%"}]}
{"smiles": "O=S(=O)(c1ccc2c(c1)CCO2)N1CCC(n2c(-c3ccc(F)cc3F)nc3cccnc32)CC1", "note": "[Example 121]", "values": [{"measurement": "pEC50", "value": "> 5.00"}, {"measurement": "Emax", "value": "30 to 80", "unit": "%"}]}
{"smiles": "O=S(=O)(c1ccc2c(c1)CCC2)N1CCC(n2c(-c3ccc(F)cc3F)nc3cccnc32)CC1", "note": "[Example 122]", "values": [{"measurement": "pEC50", "value": "> 5.00"}, {"measurement": "Emax", "value": "> 80", "unit": "%"}]}
{"smiles": "O=S(=O)(c1ccc2c(c1)OCO2)N1CCC(n2c(-c3cccnc3F)nc3cccnc32)CC1", "note": "[Example 123]", "values": [{"measurement": "pEC50", "value": "> 5.00"}, {"measurement": "Emax", "value": "10 to 30", "unit": "%"}]}
{"smiles": "O=S(=O)(c1ccc2c(c1)OC(F)(F)O2)N1CCC(n2c(-c3ccccc3OC(F)(F)F)nc3cccnc32)CC1", "note": "[Example 124]", "values": [{"measurement": "pEC50", "value": "> 5.00"}, {"measurement": "Emax", "value": "30 to 80", "unit": "%"}]}
{"smiles": "O=S(=O)(c1ccc2c(c1)OC(F)(F)O2)N1CCC(n2c(-c3ccc(F)cc3C(F)(F)F)nc3cccnc32)CC1", "note": "[Example 125]", "values": [{"measurement": "pEC50", "value": "> 5.00"}, {"measurement": "Emax", "value": "30 to 80", "unit": "%"}]}
{"smiles": "O=S(=O)(c1ccc2c(c1)OC(F)(F)O2)N1CCC(n2c(-c3ccccc3OC(F)F)nc3cccnc32)CC1", "note": "[Example 126]", "values": [{"measurement": "pEC50", "value": "> 5.00"}, {"measurement": "Emax", "value": "30 to 80", "unit": "%"}]}
{"smiles": "COc1ccc2nc(-c3ccncc3F)n(C3CCN(S(=O)(=O)c4ccc5c(c4)OC(F)(F)O5)CC3)c2n1", "note": "[Example 127]", "values": [{"measurement": "pEC50", "value": "> 5.00"}, {"measurement": "Emax", "value": "30 to 80", "unit": "%"}]}
{"smiles": "O=S(=O)(c1ccc2c(c1)OC(F)(F)O2)N1CCC(n2c(-c3ccncn3)nc3cccnc32)CC1", "note": "[Example 128]", "values": [{"measurement": "pEC50", "value": "> 5.00"}, {"measurement": "Emax", "value": "10 to 30", "unit": "%"}]}
{"smiles": "O=S(=O)(c1ccc(OC(F)F)cc1)N1CCC(n2c(-c3ccncc3F)nc3nccnc32)CC1", "note": "[Example 129]", "values": [{"measurement": "pEC50", "value": "> 5.00"}, {"measurement": "Emax", "value": "10 to 30", "unit": "%"}]}
{"smiles": "O=S(=O)(c1ccc2c(c1)OC(F)(F)O2)N1CCC(n2c(-c3ccccc3F)nc3cccnc32)CC1", "note": "[Example 130]", "values": [{"measurement": "pEC50", "value": "> 5.00"}, {"measurement": "Emax", "value": "30 to 80", "unit": "%"}]}
{"smiles": "CCc1ccc(S(=O)(=O)N2CCC(n3c(-c4ccncn4)nc4cccnc43)CC2)cc1", "note": "[Example 131]", "values": [{"measurement": "pEC50", "value": "> 5.00"}, {"measurement": "Emax", "value": "10 to 30", "unit": "%"}]}
{"smiles": "Cc1nc2ccc(S(=O)(=O)N3CCC(n4c(-c5ccncc5F)nc5cccnc54)CC3)cc2s1", "note": "[Example 132]", "values": [{"measurement": "pEC50", "value": "> 5.00"}, {"measurement": "Emax", "value": "30 to 80", "unit": "%"}]}
{"smiles": "Cc1nc2ccc(S(=O)(=O)N3CCC(n4c(-c5ccncc5F)nc5cccnc54)CC3)cc2o1", "note": "[Example 133]", "values": [{"measurement": "pEC50", "value": "> 5.00"}, {"measurement": "Emax", "value": "> 80", "unit": "%"}]}
{"smiles": "Cc1nc2ccc(S(=O)(=O)N3CCC(n4c(-c5ccc(F)cc5F)nc5cccnc54)CC3)cc2o1", "note": "[Example 134]", "values": [{"measurement": "pEC50", "value": "> 5.00"}, {"measurement": "Emax", "value": "30 to 80", "unit": "%"}]}
{"smiles": "[2H]C1([2H])Oc2ccc(S(=O)(=O)N3CCC(n4c(-c5cccnc5Cl)nc5cccnc54)CC3)cc2O1", "note": "[Example 135]", "values": [{"measurement": "pEC50", "value": "4.70 to 5.00"}, {"measurement": "Emax", "value": "10 to 30", "unit": "%"}]}
{"smiles": "[2H]C1([2H])Oc2ccc(S(=O)(=O)N3CCC(n4c(-c5ccncc5F)nc5cccnc54)CC3)cc2O1", "note": "[Example 136]", "values": [{"measurement": "pEC50", "value": "> 5.00"}, {"measurement": "Emax", "value": "10 to 30", "unit": "%"}]}
{"smiles": "O=S(=O)(c1ccc2c(c1)OC(F)(F)O2)N1CCC(n2c(-c3ccncc3Cl)nc3cnccc32)CC1", "note": "[Example 137]", "values": [{"measurement": "pEC50", "value": "4.70 to 5.00"}, {"measurement": "Emax", "value": "10 to 30", "unit": "%"}]}
{"smiles": "CCc1ccc(S(=O)(=O)N2CCC(n3c(-c4ccncc4F)nc4ccc(OC)nc43)CC2)cc1", "note": "[Example 138]", "values": [{"measurement": "pEC50", "value": "< 4.70"}, {"measurement": "Emax", "value": "30 to 80", "unit": "%"}]}
{"smiles": "Cc1noc2ccc(S(=O)(=O)N3CCC(n4c(-c5ccncc5F)nc5cccnc54)CC3)cc12", "note": "[Example 139]", "values": [{"measurement": "pEC50", "value": "< 4.70"}, {"measurement": "Emax", "value": "10 to 30", "unit": "%"}]}
{"smiles": "Cc1noc2ccc(S(=O)(=O)N3CCC(n4c(-c5ccc(F)cc5F)nc5cccnc54)CC3)cc12", "note": "[Example 140]", "values": [{"measurement": "pEC50", "value": "< 4.70"}, {"measurement": "Emax", "value": "10 to 30", "unit": "%"}]}
{"smiles": "Cc1n[nH]c2ccc(S(=O)(=O)N3CCC(n4c(-c5ccncc5F)nc5cccnc54)CC3)cc12", "note": "[Example 141]", "values": [{"measurement": "pEC50", "value": "> 5.00"}, {"measurement": "Emax", "value": "10 to 30", "unit": "%"}]}
{"smiles": "Cc1cc2cc(S(=O)(=O)N3CCC(n4c(-c5ccncc5F)nc5cccnc54)CC3)ccc2[nH]1", "note": "[Example 142]", "values": [{"measurement": "pEC50", "value": "> 5.00"}, {"measurement": "Emax", "value": "10 to 30", "unit": "%"}]}
{"smiles": "Cc1cc2cc(S(=O)(=O)N3CCC(n4c(-c5ccc(F)cc5F)nc5cccnc54)CC3)ccc2[nH]1", "note": "[Example 143]", "values": [{"measurement": "pEC50", "value": "> 5.00"}, {"measurement": "Emax", "value": "10 to 30", "unit": "%"}]}
{"smiles": "Cc1n[nH]c2ccc(S(=O)(=O)N3CCC(n4c(-c5ccc(F)cc5F)nc5cccnc54)CC3)cc12", "note": "[Example 144]", "values": [{"measurement": "pEC50", "value": "> 5.00"}, {"measurement": "Emax", "value": "10 to 30", "unit": "%"}]}
{"smiles": "CC(=O)N1c2ccc(S(=O)(=O)N3CCC(n4c(-c5ccncc5F)nc5cccnc54)CC3)cc2CC1C", "note": "(stereo not shown) [Example 145]", "values": [{"measurement": "pEC50", "value": "> 5.00"}, {"measurement": "Emax", "value": "10 to 30", "unit": "%"}]}
